Among the targets are CSNK1D (Homo sapiens, UniProt P48730); FER (Homo sapiens, UniProt P16591); TNIK (Homo sapiens, UniProt Q9UKE5).
Holding throughout (test): biochemical
The target of another assay is T1, GAK (Homo sapiens, UniProt O14976).
T1 sequence (O14976 1-1311): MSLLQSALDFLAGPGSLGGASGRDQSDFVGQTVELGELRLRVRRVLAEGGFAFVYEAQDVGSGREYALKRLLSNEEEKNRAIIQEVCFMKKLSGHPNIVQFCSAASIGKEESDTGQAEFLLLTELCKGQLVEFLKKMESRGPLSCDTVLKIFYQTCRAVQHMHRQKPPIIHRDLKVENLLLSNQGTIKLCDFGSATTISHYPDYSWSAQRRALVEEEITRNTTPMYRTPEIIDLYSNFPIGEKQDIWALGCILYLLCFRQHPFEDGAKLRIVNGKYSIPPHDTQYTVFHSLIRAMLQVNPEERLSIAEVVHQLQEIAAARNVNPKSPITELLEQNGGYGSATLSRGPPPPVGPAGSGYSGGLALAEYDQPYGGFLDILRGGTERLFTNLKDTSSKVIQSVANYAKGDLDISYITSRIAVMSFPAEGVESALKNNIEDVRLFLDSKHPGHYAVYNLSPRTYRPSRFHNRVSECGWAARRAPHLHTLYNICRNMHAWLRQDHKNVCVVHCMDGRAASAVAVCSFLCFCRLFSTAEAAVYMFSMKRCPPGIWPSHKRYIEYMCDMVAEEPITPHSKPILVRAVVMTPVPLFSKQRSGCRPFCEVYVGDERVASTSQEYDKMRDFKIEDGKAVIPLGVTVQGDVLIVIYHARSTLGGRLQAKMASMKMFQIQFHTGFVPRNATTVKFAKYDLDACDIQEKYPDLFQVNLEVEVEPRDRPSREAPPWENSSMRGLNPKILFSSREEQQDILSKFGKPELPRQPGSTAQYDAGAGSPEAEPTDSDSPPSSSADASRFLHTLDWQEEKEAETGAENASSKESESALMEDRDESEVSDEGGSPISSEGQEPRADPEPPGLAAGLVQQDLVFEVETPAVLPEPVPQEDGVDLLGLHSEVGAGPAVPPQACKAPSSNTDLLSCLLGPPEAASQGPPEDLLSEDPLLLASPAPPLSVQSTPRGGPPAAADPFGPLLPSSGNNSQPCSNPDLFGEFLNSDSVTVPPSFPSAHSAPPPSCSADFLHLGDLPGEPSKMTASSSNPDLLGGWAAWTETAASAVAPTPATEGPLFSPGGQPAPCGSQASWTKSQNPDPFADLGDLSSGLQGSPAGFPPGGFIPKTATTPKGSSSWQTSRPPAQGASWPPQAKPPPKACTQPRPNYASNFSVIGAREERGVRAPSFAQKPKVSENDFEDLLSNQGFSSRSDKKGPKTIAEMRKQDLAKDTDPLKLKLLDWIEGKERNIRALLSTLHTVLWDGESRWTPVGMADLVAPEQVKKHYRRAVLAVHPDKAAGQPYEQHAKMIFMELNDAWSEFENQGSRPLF

Another assay addresses T2, PRKD2 (Homo sapiens, UniProt Q9BZL6).
T2 sequence (Q9BZL6 1-878): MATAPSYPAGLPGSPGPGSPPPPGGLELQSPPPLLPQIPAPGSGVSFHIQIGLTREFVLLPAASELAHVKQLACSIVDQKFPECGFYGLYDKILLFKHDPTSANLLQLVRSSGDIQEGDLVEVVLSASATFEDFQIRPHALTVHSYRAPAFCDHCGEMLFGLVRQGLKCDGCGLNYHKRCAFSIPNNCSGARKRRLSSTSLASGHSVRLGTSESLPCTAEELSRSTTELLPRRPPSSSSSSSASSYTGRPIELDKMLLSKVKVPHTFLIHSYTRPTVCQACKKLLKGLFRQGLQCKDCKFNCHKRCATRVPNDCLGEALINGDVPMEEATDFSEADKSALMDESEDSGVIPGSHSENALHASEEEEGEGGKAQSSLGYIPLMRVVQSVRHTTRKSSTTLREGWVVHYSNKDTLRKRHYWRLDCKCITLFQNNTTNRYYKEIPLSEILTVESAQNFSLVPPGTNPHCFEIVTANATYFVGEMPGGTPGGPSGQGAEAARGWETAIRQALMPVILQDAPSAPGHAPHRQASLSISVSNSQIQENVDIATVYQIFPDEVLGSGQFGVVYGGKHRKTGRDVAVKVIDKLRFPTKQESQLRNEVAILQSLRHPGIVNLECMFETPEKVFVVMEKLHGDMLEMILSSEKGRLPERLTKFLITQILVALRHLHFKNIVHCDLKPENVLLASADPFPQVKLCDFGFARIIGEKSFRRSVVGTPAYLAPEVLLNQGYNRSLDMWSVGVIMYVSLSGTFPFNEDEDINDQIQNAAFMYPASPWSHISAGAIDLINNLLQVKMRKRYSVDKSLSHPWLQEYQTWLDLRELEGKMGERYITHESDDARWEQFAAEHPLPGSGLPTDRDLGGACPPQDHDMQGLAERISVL

Several values for one entry are separate records, joined by “and”; a condition that tells them apart may be missing. Equal values may be shown once.

Sequence of CSNK1D (P48730 whole entry): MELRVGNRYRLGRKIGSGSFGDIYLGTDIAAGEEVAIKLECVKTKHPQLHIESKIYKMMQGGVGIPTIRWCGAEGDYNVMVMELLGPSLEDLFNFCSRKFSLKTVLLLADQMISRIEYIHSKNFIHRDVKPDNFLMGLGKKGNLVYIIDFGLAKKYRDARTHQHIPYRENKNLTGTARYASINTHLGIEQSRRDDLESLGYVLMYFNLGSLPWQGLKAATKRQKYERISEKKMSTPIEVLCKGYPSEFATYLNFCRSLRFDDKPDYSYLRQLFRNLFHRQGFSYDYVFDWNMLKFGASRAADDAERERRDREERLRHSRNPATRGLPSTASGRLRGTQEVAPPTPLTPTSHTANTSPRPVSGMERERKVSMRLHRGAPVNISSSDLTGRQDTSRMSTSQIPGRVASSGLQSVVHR
Sequence of TNIK (Q9UKE5 whole entry): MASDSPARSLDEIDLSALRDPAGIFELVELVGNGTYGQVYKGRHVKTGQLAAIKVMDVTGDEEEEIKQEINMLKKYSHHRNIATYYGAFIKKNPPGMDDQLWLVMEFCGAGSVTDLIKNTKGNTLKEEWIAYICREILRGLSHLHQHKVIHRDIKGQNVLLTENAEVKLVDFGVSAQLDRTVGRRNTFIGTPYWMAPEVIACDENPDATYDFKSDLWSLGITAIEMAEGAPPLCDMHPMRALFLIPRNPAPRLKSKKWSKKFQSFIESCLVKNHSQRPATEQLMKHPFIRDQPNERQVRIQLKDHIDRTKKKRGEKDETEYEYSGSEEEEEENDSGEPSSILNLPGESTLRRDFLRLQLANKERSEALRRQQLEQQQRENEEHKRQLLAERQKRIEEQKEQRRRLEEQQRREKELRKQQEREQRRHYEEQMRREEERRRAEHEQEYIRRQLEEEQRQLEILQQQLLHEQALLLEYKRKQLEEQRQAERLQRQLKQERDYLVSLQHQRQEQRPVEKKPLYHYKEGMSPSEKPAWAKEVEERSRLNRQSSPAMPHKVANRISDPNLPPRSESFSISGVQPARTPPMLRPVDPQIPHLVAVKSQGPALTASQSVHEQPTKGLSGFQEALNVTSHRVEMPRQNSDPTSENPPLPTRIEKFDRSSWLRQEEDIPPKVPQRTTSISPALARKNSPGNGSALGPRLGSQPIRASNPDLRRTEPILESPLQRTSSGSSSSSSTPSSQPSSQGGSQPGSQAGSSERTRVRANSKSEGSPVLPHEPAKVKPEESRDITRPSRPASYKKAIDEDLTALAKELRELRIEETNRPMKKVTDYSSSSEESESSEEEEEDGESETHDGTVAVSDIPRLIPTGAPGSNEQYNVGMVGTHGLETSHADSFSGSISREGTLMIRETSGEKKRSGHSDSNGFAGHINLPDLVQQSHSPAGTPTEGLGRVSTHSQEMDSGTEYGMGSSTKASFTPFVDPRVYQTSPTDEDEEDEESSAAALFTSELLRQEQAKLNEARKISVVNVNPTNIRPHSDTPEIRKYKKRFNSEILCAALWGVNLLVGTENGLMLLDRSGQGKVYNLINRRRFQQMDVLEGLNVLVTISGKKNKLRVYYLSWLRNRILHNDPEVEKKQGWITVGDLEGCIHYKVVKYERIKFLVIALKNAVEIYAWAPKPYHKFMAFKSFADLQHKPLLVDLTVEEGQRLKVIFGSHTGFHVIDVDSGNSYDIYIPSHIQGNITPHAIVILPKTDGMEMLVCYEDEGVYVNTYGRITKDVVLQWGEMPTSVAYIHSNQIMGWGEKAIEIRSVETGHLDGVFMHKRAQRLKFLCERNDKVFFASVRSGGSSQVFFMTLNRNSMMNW
Sequence of FER (P16591 whole entry): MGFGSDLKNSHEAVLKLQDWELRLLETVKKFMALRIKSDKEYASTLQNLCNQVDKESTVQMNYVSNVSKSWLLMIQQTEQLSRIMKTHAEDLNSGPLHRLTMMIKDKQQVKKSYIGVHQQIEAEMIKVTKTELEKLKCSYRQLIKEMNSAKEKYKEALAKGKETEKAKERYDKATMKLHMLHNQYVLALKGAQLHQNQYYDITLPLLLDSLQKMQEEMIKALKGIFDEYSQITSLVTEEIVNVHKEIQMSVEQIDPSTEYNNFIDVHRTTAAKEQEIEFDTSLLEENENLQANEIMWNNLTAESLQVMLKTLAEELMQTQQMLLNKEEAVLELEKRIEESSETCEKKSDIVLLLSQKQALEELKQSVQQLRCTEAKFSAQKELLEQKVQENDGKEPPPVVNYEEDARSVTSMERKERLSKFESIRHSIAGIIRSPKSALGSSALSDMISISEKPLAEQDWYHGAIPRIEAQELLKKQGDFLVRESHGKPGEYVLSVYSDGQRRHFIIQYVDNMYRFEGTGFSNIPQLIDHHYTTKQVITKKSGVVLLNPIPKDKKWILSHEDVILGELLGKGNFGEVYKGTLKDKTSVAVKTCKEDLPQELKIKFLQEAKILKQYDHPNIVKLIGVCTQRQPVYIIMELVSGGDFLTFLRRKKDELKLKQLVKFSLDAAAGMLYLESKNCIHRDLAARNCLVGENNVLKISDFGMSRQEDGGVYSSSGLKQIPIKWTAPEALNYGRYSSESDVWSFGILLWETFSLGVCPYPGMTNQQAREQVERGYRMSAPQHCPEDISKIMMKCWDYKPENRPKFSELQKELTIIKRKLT

Regarding `CN1CCN(c2ccc(Nc3ncc(C#N)c(Nc4ccccc4C(N)=O)n3)cc2)CC1.Cl` [TCMDC-134116], the IC50 (as a rule, the midpoint of a concentration-inhibition curve) against GAK is 82 nM and 100 nM; against CSNK1D, 1800 nM; at FER it was 220 nM and 210 nM; on TNIK, 200 nM and 250 nM; against PRKD2 it was 340 nM and 330 nM.
`Cl.NCC1(c2nc(-c3ccc(Cl)c(O)c3)c(-c3ccncc3)[nH]2)CCCCC1` [TCMDC-141154]: the IC50 on GAK is over 20000 nM; on CSNK1D it was 69 nM and 79 nM; against FER, over 20000 nM; against TNIK, 290 nM; against PRKD2 it was 5200 nM and 4300 nM.
`CN(C)CC(O)COc1ccc(Nc2ncc([N+](=O)[O-])c(Nc3ccccc3O)n2)cc1.O=C(O)C(F)(F)F` (stereo not drawn) [TCMDC-141399]: the IC50 on GAK is 1500 nM and 2300 nM; at CSNK1D it was over 20000 nM; against FER, 930 nM and 810 nM; against TNIK, 820 nM; against PRKD2, 1900 nM.

The record behind these values is paper PMC4774911, “Biochemical Screening of Five Protein Kinases from Plasmodium falciparum against 14,000 Cell-Active Compounds” (PLoS ONE, 2016).
